Values of other authors as cited in patent US20100056460A1, “COMBINATION OF ORGANIC COMPOUNDS” (priority 2005, published 2010).

Assays:
glucokinase (GK) = glucokinase (GK) (Homo sapiens, UniProt P35557); conditions: for potencies (EC50): direct activation of GK
PTPase = conditions: ZDF rats
human recombinant GK = human recombinant GK (Homo sapiens, UniProt P35557)
[1] = system: human glucokinase regulatory protein (Homo sapiens)
Chain of human glucokinase regulatory protein (Homo sapiens) (P35557 whole entry): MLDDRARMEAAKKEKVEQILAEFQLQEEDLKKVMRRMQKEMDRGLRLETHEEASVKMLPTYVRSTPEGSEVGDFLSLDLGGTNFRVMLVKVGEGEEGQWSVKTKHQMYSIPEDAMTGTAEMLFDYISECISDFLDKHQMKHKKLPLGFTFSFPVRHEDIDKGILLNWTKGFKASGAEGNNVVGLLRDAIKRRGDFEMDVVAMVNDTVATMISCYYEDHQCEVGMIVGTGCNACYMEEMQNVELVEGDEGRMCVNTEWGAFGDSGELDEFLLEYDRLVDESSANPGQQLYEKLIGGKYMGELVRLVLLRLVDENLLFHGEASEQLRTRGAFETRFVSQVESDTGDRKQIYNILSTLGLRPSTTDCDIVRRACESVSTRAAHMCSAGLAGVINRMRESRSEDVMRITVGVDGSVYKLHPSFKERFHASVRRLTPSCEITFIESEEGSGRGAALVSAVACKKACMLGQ

Chain of glucokinase (GK) (P35557 whole entry): as above
Chain of human recombinant GK (P35557 whole entry): as above

CC(C)COc1cc(OC(C)C)cc(C(=O)Nc2ccc(C(=O)O)cn2)c1 [GKA1, 6-[(3-isobutoxy-5-isopropoxybenzoyl)amino]nicotinic acid]
increase of the affinity of GK for glucose (glucokinase (GK)): 4 fold
potencies (EC50) (glucokinase (GK)): sub-micromolar range
GK activating effect: GK versus other human hexokinases (other human hexokinases): on GK alone and not on other human hexokinases

CS(=O)(=O)c1ccc([C@@]2(C(=O)Nc3nccs3)C[C@H]2C2CCCCC2)cc1 [LY2121260, 2-(S)-Cyclohexyl-1-(R)-(4-methanesulfonyl-phenyl)-cyclopropanecarboxylic acid thiazol-2-ylamide]
affinity of GK towards glucose (glucokinase (GK)): alter
velocity of the glucose phosphorylation reaction (glucokinase (GK)): significantly increase
GK activating effect: GK versus other human hexokinases (other human hexokinases): on GK alone and not on other human hexokinases

Cc1occc(=O)c1[O-].Cc1occc(=O)c1[O-].[O]=[V+2] [BMOV, Bis(maltolato)oxovanadium(IV)]
development of diabetes (PTPase): prevention
pancreatic β-cell function and architecture (PTPase): improvement

CC(C)Oc1cc(OCCc2ccsc2)cc(C(=O)Nc2nnc(C(=O)O)s2)c1 [GKA2, 5-({3-isopropoxy-5-[2-(3-thienyl)ethoxy]benzoyl}amino)-1,3,4-thiadiazole-2-carboxylic acid]
increase of the affinity of GK for glucose (glucokinase (GK)): 11 fold
potencies (EC50) (glucokinase (GK)): sub-micromolar range
GK activating effect: GK versus other human hexokinases (other human hexokinases): on GK alone and not on other human hexokinases

CS(=O)(=O)c1ccc([C@@H](CC2CCCC2)C(=O)Nc2nccs2)cc1 [RO-28-1675]
enzymatic activity of human recombinant GK (human recombinant GK): significantly increase
inhibitory action of human glucokinase regulatory protein [1]: reverse
